PubChem BioAssay AID2060599 (Molecular Pharmacology Branch, DTP, NCI, 2025)
pIC50: −log10 of the molar value. Several values for one entry are separate records, joined by “and”; a condition that tells them apart may be missing. Equal values may be shown once. One block for each molecule: values may come before it.

Test system: 817829-284-R-J1-PDC complex spheroids, viability
Test: Anticancer human tumor 817829-284-R-J1-PDC patient-derived colon adenocarcinoma cell line growth inhibition [CLK]
Details: for viability, T/C: stronger effect = lower value
Summary of the method: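 Patient-derived tumor cells grown as complex spheroids with HUVEC endothelial cells and mesenchymal stem cells, treated with drug combinations. Concentrations descend in half-log steps from near clinical Cmax, or from 10 microM if Cmax unknown.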

[1] = curve of first compound, second compound 0.0316 µM
[2] = curve of first compound, second compound 0.1 µM
[3] = curve of first compound, second compound 0.316 µM
[4] = curve of first compound, second compound 1 µM
[5] = curve of first compound, second compound 3.16 µM
[6] = curve of first compound, second compound 10 µM
[7] = second compound 0.0316 µM, first compound 0.0316 µM
[8] = second compound 0.0316 µM, first compound 0.1 µM
[9] = second compound 0.0316 µM, first compound 0.316 µM
[10] = second compound 0.0316 µM, first compound 1 µM
[11] = second compound 0.0316 µM, first compound 3.16 µM
[12] = second compound 0.0316 µM, first compound 10 µM
[13] = second compound 0.1 µM, first compound 0.0316 µM
[14] = second compound 0.1 µM, first compound 0.1 µM
[15] = second compound 0.1 µM, first compound 0.316 µM
[16] = second compound 0.1 µM, first compound 1 µM
[17] = second compound 0.1 µM, first compound 3.16 µM
[18] = second compound 0.1 µM, first compound 10 µM
[19] = second compound 0.316 µM, first compound 0.0316 µM
[20] = second compound 0.316 µM, first compound 0.1 µM
[21] = second compound 0.316 µM, first compound 0.316 µM
[22] = second compound 0.316 µM, first compound 1 µM
[23] = second compound 0.316 µM, first compound 3.16 µM
[24] = second compound 0.316 µM, first compound 10 µM
[25] = second compound 1 µM, first compound 0.0316 µM
[26] = second compound 1 µM, first compound 0.1 µM
[27] = second compound 1 µM, first compound 0.316 µM
[28] = second compound 1 µM, first compound 1 µM
[29] = second compound 1 µM, first compound 3.16 µM
[30] = second compound 1 µM, first compound 10 µM
[31] = second compound 3.16 µM, first compound 0.0316 µM
[32] = second compound 3.16 µM, first compound 0.1 µM
[33] = second compound 3.16 µM, first compound 0.316 µM
[34] = second compound 3.16 µM, first compound 1 µM
[35] = second compound 3.16 µM, first compound 3.16 µM
[36] = second compound 3.16 µM, first compound 10 µM
[37] = second compound 10 µM, first compound 0.0316 µM
[38] = second compound 10 µM, first compound 0.1 µM
[39] = second compound 10 µM, first compound 0.316 µM
[40] = second compound 10 µM, first compound 1 µM
[41] = second compound 10 µM, first compound 3.16 µM
[42] = second compound 10 µM, first compound 10 µM
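Further: spheroids exposed to the agents for seven days before readout.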

- pIC50 (curve of compound): 5.92 and 5.39
Structure (SMILES): CCCS(=O)(=O)Nc1ccc(F)c(C(=O)c2c[nH]c3ncc(-c4ccc(Cl)cc4)cc23)c1F
- viability, T/C (compound 0.0316 µM): 86.7% and 79.4%
- viability, T/C (compound 0.1 µM): 48.8% and 64.2%
- viability, T/C (compound 0.316 µM): 66% and 89%
- viability, T/C (compound 1 µM): 54.1% and 77%
- viability, T/C (compound 3.16 µM): 52.5% and 59.8%
- viability, T/C (compound 10 µM): 25.3% and 16.9%

- pIC50 (curve of compound): 5.37
Structure (SMILES): CC1(C)CCC(CN2CCN(c3ccc(C(=O)NS(=O)(=O)c4ccc(NCC5CCOCC5)c([N+](=O)[O-])c4)c(Oc4cnc5[nH]ccc5c4)c3)CC2)=C(c2ccc(Cl)cc2)C1
- viability, T/C (compound 0.0316 µM): 103%
- viability, T/C (compound 0.1 µM): 85.1%
- viability, T/C (compound 0.316 µM): 98.6%
- viability, T/C (compound 1 µM): 63.7%
- viability, T/C (compound 3.16 µM): 77.5%
- viability, T/C (compound 10 µM): 2.29%

Further lines, the molecule ahead of its results:

Structure (SMILES): C=C(F)C(=O)N1CCN(c2nc(OCC3CCCN3C)nc3c2CCN(c2cccc4cccc(Cl)c24)C3)CC1CC#N (configuration not stated) + CN1CCN(c2cc(C(=O)Nc3cc4cc(-c5cnn(C)c5)ccc4cn3)ccn2)CC1
- pIC50 [1]: 5.80
- pIC50 [2]: > 7.50
- pIC50 [3]: > 7.50
- pIC50 [4]: > 7.50
- pIC50 [5]: > 7.50
- pIC50 [6]: > 7.50
- viability, T/C [7]: 79.5%
- viability, T/C [8]: 71.8%
- viability, T/C [9]: 63.4%
- viability, T/C [10]: 79.5%
- viability, T/C [11]: 16.2%
- viability, T/C [12]: 0.06%
- viability, T/C [13]: 24.5%
- viability, T/C [14]: 29.8%
- viability, T/C [15]: 16.7%
- viability, T/C [16]: 22.5%
- viability, T/C [17]: 9.48%
- viability, T/C [18]: 0.04%
- viability, T/C [19]: 2.04%
- viability, T/C [20]: 2.26%
- viability, T/C [21]: 2.74%
- viability, T/C [22]: 2.59%
- viability, T/C [23]: 0.76%
- viability, T/C [24]: 0.04%
- viability, T/C [25]: 0.15%
- viability, T/C [26]: 0.11%
- viability, T/C [27]: 0.11%
- viability, T/C [28]: 0.11%
- viability, T/C [29]: 0.84%
- viability, T/C [30]: 0.05%
- viability, T/C [31]: 0.2%
- viability, T/C [32]: 0.19%
- viability, T/C [33]: 0.2%
- viability, T/C [34]: 0.15%
- viability, T/C [35]: 0.11%
- viability, T/C [36]: 0.08%
- viability, T/C [37]: 0.1%
- viability, T/C [38]: 0.11%
- viability, T/C [39]: 0.19%
- viability, T/C [40]: 0.21%
- viability, T/C [41]: 0.2%
- viability, T/C [42]: 0.16%

Structure (SMILES): CC(=O)O[C@H]1C(=O)[C@@]2(C)[C@H]([C@H](OC(=O)c3ccccc3)[C@]3(O)C[C@H](OC(=O)[C@H](O)[C@@H](NC(=O)c4ccccc4)c4ccccc4)C(C)=C1C3(C)C)[C@]1(OC(C)=O)CO[C@@H]1C[C@@H]2O + CNC(=O)c1ccc(Nc2nc(OC3CCCC3)c3c(-c4ccc5nc(C)oc5c4)c[nH]c3n2)c(OC)c1
- pIC50 [1]: > 7.50
- pIC50 [2]: > 7.50
- pIC50 [3]: > 7.50
- pIC50 [4]: > 7.50
- pIC50 [5]: > 7.50
- pIC50 [6]: > 7.50
- viability, T/C [7]: 10.8%
- viability, T/C [8]: 11.5%
- viability, T/C [9]: 10.8%
- viability, T/C [10]: 10.6%
- viability, T/C [11]: 11.6%
- viability, T/C [12]: 16.2%
- viability, T/C [13]: 24.2%
- viability, T/C [14]: 25.3%
- viability, T/C [15]: 20.2%
- viability, T/C [16]: 23.8%
- viability, T/C [17]: 28.9%
- viability, T/C [18]: 26.8%
- viability, T/C [19]: 29.5%
- viability, T/C [20]: 31.6%
- viability, T/C [21]: 43.8%
- viability, T/C [22]: 38.9%
- viability, T/C [23]: 45.1%
- viability, T/C [24]: 32.6%
- viability, T/C [25]: 31.7%
- viability, T/C [26]: 23.7%
- viability, T/C [27]: 24%
- viability, T/C [28]: 30.4%
- viability, T/C [29]: 22.6%
- viability, T/C [30]: 22.8%
- viability, T/C [31]: 26.2%
- viability, T/C [32]: 23.9%
- viability, T/C [33]: 17.7%
- viability, T/C [34]: 20.1%
- viability, T/C [35]: 23.3%
- viability, T/C [36]: 23.3%
- viability, T/C [37]: 18.6%
- viability, T/C [38]: 23.3%
- viability, T/C [39]: 29.5%
- viability, T/C [40]: 24.3%
- viability, T/C [41]: 20.5%
- viability, T/C [42]: 19.9%

Structure (SMILES): O=C(c1cc(Cc2n[nH]c(=O)c3ccccc23)ccc1F)N1CCN(C(=O)C2CC2)CC1 + CN1CCN(c2cc(C(=O)Nc3cc4cc(-c5cnn(C)c5)ccc4cn3)ccn2)CC1
- pIC50 [1]: > 7.50
- pIC50 [2]: > 7.50
- pIC50 [3]: > 7.50
- pIC50 [4]: > 7.50
- pIC50 [5]: > 7.50
- pIC50 [6]: > 7.50
- viability, T/C [7]: 49.4%
- viability, T/C [8]: 44.3%
- viability, T/C [9]: 46.2%
- viability, T/C [10]: 45.6%
- viability, T/C [11]: 36.7%
- viability, T/C [12]: 26.6%
- viability, T/C [13]: 15.5%
- viability, T/C [14]: 19.8%
- viability, T/C [15]: 18.6%
- viability, T/C [16]: 20.7%
- viability, T/C [17]: 17.8%
- viability, T/C [18]: 18.6%
- viability, T/C [19]: 1.83%
- viability, T/C [20]: 1.77%
- viability, T/C [21]: 2.03%
- viability, T/C [22]: 1.63%
- viability, T/C [23]: 1.4%
- viability, T/C [24]: 1.54%
- viability, T/C [25]: 0.12%
- viability, T/C [26]: 0.1%
- viability, T/C [27]: 0.12%
- viability, T/C [28]: 0.09%
- viability, T/C [29]: 0.12%
- viability, T/C [30]: 0.09%
- viability, T/C [31]: 0.2%
- viability, T/C [32]: 0.18%
- viability, T/C [33]: 0.17%
- viability, T/C [34]: 0.16%
- viability, T/C [35]: 0.23%
- viability, T/C [36]: 0.22%
- viability, T/C [37]: 0.06%
- viability, T/C [38]: 0.08%
- viability, T/C [39]: 0.15%
- viability, T/C [40]: 0.09%
- viability, T/C [41]: 0.18%
- viability, T/C [42]: 0.15%

Structure (SMILES): CCc1c2c(nc3ccc(O)cc13)-c1cc3c(c(=O)n1C2)COC(=O)[C@]3(O)CC + CN1CCN(c2cc(C(=O)Nc3cc4cc(-c5cnn(C)c5)ccc4cn3)ccn2)CC1
- pIC50 [1]: > 8.50
- pIC50 [2]: > 8.50
- pIC50 [3]: > 8.50
- pIC50 [4]: > 8.50
- pIC50 [5]: > 8.50
- pIC50 [6]: > 8.50
- viability, T/C (second compound 0.0316 µM, first compound 0.00316 µM): 18.9%
- viability, T/C (second compound 0.0316 µM, first compound 0.01 µM): 14.8%
- viability, T/C [7]: 12.5%
- viability, T/C [8]: 6.83%
- viability, T/C [9]: 4.71%
- viability, T/C [10]: 2.93%
- viability, T/C (second compound 0.1 µM, first compound 0.00316 µM): 14.1%
- viability, T/C (second compound 0.1 µM, first compound 0.01 µM): 11.4%
- viability, T/C [13]: 7.3%
- viability, T/C [14]: 4.95%
- viability, T/C [15]: 3.31%
- viability, T/C [16]: 1.84%
- viability, T/C (second compound 0.316 µM, first compound 0.00316 µM): 2.41%
- viability, T/C (second compound 0.316 µM, first compound 0.01 µM): 2.17%
- viability, T/C [19]: 1.78%
- viability, T/C [20]: 0.79%
- viability, T/C [21]: 0.28%
- viability, T/C [22]: 0.34%
- viability, T/C (second compound 1 µM, first compound 0.00316 µM): 0.09%
- viability, T/C (second compound 1 µM, first compound 0.01 µM): 0.12%
- viability, T/C [25]: 0.2%
- viability, T/C [26]: 0.27%
- viability, T/C [27]: 0.27%
- viability, T/C [28]: 0.41%
- viability, T/C (second compound 3.16 µM, first compound 0.00316 µM): 0.14%
- viability, T/C (second compound 3.16 µM, first compound 0.01 µM): 0.18%
- viability, T/C [31]: 0.19%
- viability, T/C [32]: 0.21%
- viability, T/C [33]: 0.31%
- viability, T/C [34]: 0.67%
- viability, T/C (second compound 10 µM, first compound 0.00316 µM): 0.05%
- viability, T/C (second compound 10 µM, first compound 0.01 µM): 0.1%
- viability, T/C [37]: 0.12%
- viability, T/C [38]: 0.13%
- viability, T/C [39]: 0.15%
- viability, T/C [40]: 0.1%
